From US9073858B2, “Methods of targeted drug development” (priority 2010, dated 2015)
“Also recorded” adds a separate entry of the source. Like-named read-outs stand apart in the source and are kept apart here.

Key:
[1] = Stability on incubation with mouse liver microsomes (MLM); assay type: in vitro ADME; details: for MLM % Remaining@ 30 Min: percentage left after incubation with mouse liver microsomes for 30 minutes
Summary of the method: (§1)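 Values are percent compound remaining after 30 min incubation with mouse or human liver microsomes.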

[2] = system: EGF receptor-mediated cell proliferation; test: Combinatorial studies with known EGFR inhibitors, median effect analysis (MTT assay)
Protocol: Studies were initiated to evaluate the ability of various compounds disclosed herein to synergize with several compounds known to inhibit the function of the EGF receptor in a cell proliferation assay (MTT assay).
The EGFR inhibitor and AD4 compound dilutions were then mixed 1:1 in a 96 well plate. 50 μl of the mix was then added to the cell plate.
A shifting of the inhibitor curve to the left indicates an increase in the effectiveness of the AD4-compound.

[3] = Stability on incubation with human liver microsomes (HLM); assay type: in vitro ADME; details: percentage left after incubation with human liver microsomes for 30 minutes
Summary of the method: as §1

H1975 cells = test: H1975 Cell Proliferation Assay (MTT); assay type: cell-based; details: Homo sapiens, NCI-H1975, 72 h, read-out: IC50 Value (μM) H1975 Cells
Protocol: (§2) Cell proliferation is determined using the MTT assay. The MTT cell proliferation assay is a colorimetric assay system which measures the reduction of a tetrazolium component (MTT) into an insoluble formazan product by the mitochondria of viable cells. After incubation of the cells with the MTT reagent, DMSO is added to solubilize the colored crystals and the samples read at a wavelength of 560 nm. The amount of color produced is directly proportional to the number of viable cells.
(§3) 3-(4,5-Dimethylthiazol-2-yl)-2,5-diphenyltetrazolium Bromide (MTT) dye (Aesar, cat no. L11939) was prepared at 5 mg/ml in PBS. To each well, 20 μl of MTT solution was added to existing media and mixed thoroughly with 5 mins of gentle shaking at room temperature. Plates were incubated at 37° C., 5% CO2 for approximately 2 hrs. After 2-3 hrs incubation, media was aspirated out and plates were patted dry. […] Plates were incubated at 37° C., 5% CO2 for 10 min and mix thoroughly with 5 mins of gentle shaking at room temperature. Plates were read on the PolarStar plate reader at 560 nm. Percent (%) inhibition was calculated as 100%−(OD560 nm experimental-blank)×100%/OD560 nm control-blank. Blank=wells+serum free media+0.5% DMSO. Experimental=wells+cells+treatment+0.5% DMSO. Control=wells+cells+0.5% DMSO. IC50 values were calculated in GraphPad Prism using non-linear regression curve fitting. All statistical analyses was done either in GraphPad Prism or Microsoft Excel.
Briefly, compounds are added to cells plated in 96-well plates. The cells are allowed to grow for 72 hours before MTT treatment. The effect of the compounds on cell proliferation is analyzed using GraphPad Prism.

[4] = system: caspase 3,7 activity in A431 cells; test: cells; details: for Emax at 8 µM / Emax at 16 µM: Homo sapiens, A-431, read-out: Total Apoptosis (increase in caspase 3,7 activity as percentage of the maximal response); for Ability to Synergize with Tarceva: caspase 3,7 activity, A431 cells
Description: As described below, the capsase 3,7 assay uses the Promega Caspase-Glo 3/7 assay kit (cat no. G8092).
The Caspase-Glo® 3/7 Assay is a luminescent assay that measures caspase-3 and −7 activities in purified enzyme preparations or cultures of adherent or suspension cells. The assay provides a proluminescent caspase-3/7 substrate, which contains the tetrapeptide sequence, DEVD. This substrate is cleaved to release aminoluciferin, a substrate of luciferase used in the production of light. The Caspase-Glo® 3/7 Reagent has been optimized for caspase activity, luciferase activity and cell lysis. The addition of the single Caspase-Glo® 3/7 Reagent in an “add-mix-measure” format results in cell lysis, followed by caspase cleavage of the substrate and generation of a “glow-type” luminescent signal. The Caspase-Glo® 3/7 Assay is designed for use with multiwell plate formats, making it ideal for automated high-throughput screening of caspase activity or apoptosis.
Staurosporine was used as a positive control.
For the capsase 3,7 assay, cells were incubated for 5.5 hrs at 37° C., 5% CO2. The plate was removed from the incubator and equilibrated to room temperature. After 30 min, 25 μl Caspase 3/7 detection reagent (Promega Caspase-Glo 3/7 assay kit, cat no. G8092) was added to each well. The plate was covered with tin foil and shaken on a plate shaker at speed 4 for 3 min. The plate was then incubated for an additional 60 min at room temperature. Luminescence was detected using the PolarStar plate reader.
All statistical analyses were done using GraphPad Prism.
The assay was stopped after 6 hrs and the presence of caspase was measured using the Promega Caspase-Glo® 3/7 Assay.

A549 cells = test: A549 Cell Proliferation Assay (MTT); assay type: cell-based; details: Homo sapiens
Protocol: Cell proliferation is determined using the MTT assay. The MTT cell proliferation assay is a colorimetric assay system which measures the reduction of a tetrazolium component (MTT) into an insoluble formazan product by the mitochondria of viable cells. After incubation of the cells with the MTT reagent, DMSO is added to solubilize the colored crystals and the samples read at a wavelength of 560 nm. The amount of color produced is directly proportional to the number of viable cells. […] L11939) was prepared at 5 mg/ml in PBS. […] Plates were read on the PolarStar plate reader at 560 nm. […] IC50 values were calculated in GraphPad Prism using non-linear regression curve fitting. All statistical analyses was done either in GraphPad Prism or Microsoft Excel. […] Briefly, compounds are added to cells plated in 96-well plates. The cells are allowed to grow for 72 hours before MTT treatment. The effect of the compounds on cell proliferation is analyzed using GraphPad Prism. A549 cells are a non-small cell lung cancer cell line that have wild type EGFR and p53 but have point mutations in KRAS gene which transform it into an oncogene. […] SH30071.03, lot no. ATB31500), 1% Pen Strep (Gibco, cat no. […] On day 2, working solutions of compounds at 200× were prepared. […] Plates were incubated for 72 hours before analyzing them with MTT (as described above).

HT-29 cells = test: HT-29 Cell Proliferation Assay (MTT); assay type: cell-based; details: for IC50: Homo sapiens
Protocol: as §2, §3
Briefly, compounds are added to cells plated in 96-well plates. […] The effect of the compounds on cell proliferation is analyzed using GraphPad Prism.
HT-29 cells are a colon cancer cell line that is utilized to assess the ability of compounds to inhibit the proliferation of cells in tumors of the colon.
For the HT-29 cell proliferation assay, on day 1, HT-29 cells are seeded at 3,000 cells/well in 100 μl media containing 10% FBS, 1× Pen-Strep, and 1× L-Glutamine in 96 well, tissue culture-treated plates. […] Working solutions of compounds were prepared (at […] in 100% DMSO). To 200 μl media, 20 μl of a 5× compound (diluted in plain media) was added for a final DMSO concentration of 0.5%. […] On day 5, plates were analyzed for cell growth using the MTT assay.

[5] = system: DNA fragmentation in A549 cells; test: DNA Fragmentation Assay (Cell Death Detection ELISA); assay type: cell-based; details: for activation at 1 µM / activation at 10 µM / Emax at 1 µM / Emax at 10 µM: Homo sapiens; for activation at 1 µM / activation at 10 µM: A549, 24 h, read-out: % Increase over Background; for Emax at 1 µM / Emax at 10 µM: A549, read-out: % Increase Relative to Staurosporin; for induction of apoptosis in A549 cells (DNA fragmentation assay): 10 μM, FIG. 15
[6] = Combination Index with Iressa at 90% inhibition
[7] = Combination Index with Tykerb at 90% inhibition
[8] = A549, 72 h, read-out: IC50 Value (μM) A549 Cells
[9] = HT-29, 72 h, read-out: IC50 Value (μM) HT-29 Cells

Cc1cccc(NC(c2ccc(C(F)(F)F)cc2)c2ccc3cccnc3c2O)n1 (centres unmarked) [AD4-10628]
MLM % Remaining@ 30 Min [1]: 3%
CI @ ED90 [2, 6]: 0.91
CI @ ED90 [2, 7]: 0.55
synergy with Tykerb ([2]; based on CI value): significant synergy
IC50 ([2]; read-out: IC50 Iressa + Compound (nM)): 93 nM
HLM % Remaining@ 30 Min [3]: 45%

Cc1ccc2c(C)nc(Nc3nc(-c4ccccc4C)cc(=O)[nH]3)nc2c1 [AD4-11511]
MLM % Remaining@ 30 Min [1]: 6%
CI @ ED90 [2, 6]: 0.93
CI @ ED90 [2, 7]: 0.87
shift in Tykerb's dose-response curve ([2]; in combination with Tykerb): leftward shift (i.e., greater potency)
IC50 ([2]; read-out: IC50 Iressa + Compound, Iressa combined with the compound at a fixed constant ratio, MTT assay): 245 nM
IC50 ([2]; read-out: IC50 Tykerb + Compound, Tykerb combined with the compound at a fixed constant ratio, MTT assay): 118 nM
HLM % Remaining@ 30 Min [3]: 6%

Cc1ccnc(NC(c2cc(Cl)cc(Cl)c2Cl)c2ccc3cccnc3c2O)c1 (centres unmarked) [AD4-13072]
IC50 (H1975 cells): 0.29 µM
Emax at 8 µM [4]: 38%
Emax at 16 µM [4]: 49%
Ability to Synergize with Tarceva [4]: +++ (0.3-0.7 Synergism)
IC50 (A549 cells; [8]): 0.15 µM

Cc1cc(Cl)cnc1NC(c1cc(Cl)ccc1Cl)c1ccc2cccnc2c1O (centres unmarked) [AD4-13137]
IC50 (H1975 cells): 0.12 µM
IC50 (HT-29 cells; [9]): 0.78 µM
IC50 (A549 cells; [8]): 0.16 µM
activation at 1 µM [5]: 182%
activation at 10 µM [5]: 628%
Emax at 1 µM [5]: 18%
Emax at 10 µM [5]: 55%

Oc1c(C(Nc2ccc(C(F)(F)F)cn2)c2cccc(C(F)(F)F)c2)ccc2cccnc12 (centres unmarked) [AD4-13164]
activation at 1 µM [5]: 525%
activation at 10 µM [5]: 788%
Emax at 1 µM [5]: 39%
Emax at 10 µM [5]: 58%

Oc1c(C(Nc2ncc(C(F)(F)F)cc2F)c2ccc(Cl)cc2Cl)ccc2cccnc12 (centres unmarked) [AD4-13165]
stability toward liver microsome incubation ([1]; mouse and human liver microsomes (MLM, HLM)): increased stability; also recorded: good stability
MLM % Remaining@ 30 Min [1]: 100%
IC50 (H1975 cells): 0.14 µM
IC50 (HT-29 cells; [9]): 5 µM
IC50 (A549 cells; [8]): 0.16 µM
induction of apoptosis in A549 cells (DNA fragmentation assay) [5]: induce apoptosis
HLM % Remaining@ 30 Min [3]: 100%

Oc1c(C(Nc2ncc(F)cc2F)c2cc(Cl)cc(Cl)c2)ccc2cccnc12 (centres unmarked) [AD4-13176]
induction of apoptosis in A549 cells (DNA fragmentation assay) [5]: induce apoptosis

Oc1c(C(Nc2cc(Cl)c(Cl)cn2)c2ccc(Cl)cc2Cl)ccc2cccnc12 (centres unmarked) [AD4-13178]
MLM % Remaining@ 30 Min [1]: 83%
IC50 (H1975 cells): 0.19 µM
IC50 (HT-29 cells; [9]): 0.79 µM
IC50 (A549 cells; [8]): 0.084 µM
IC50 (A549 cells; A549, read-out: IC50, cell proliferation in A549 or H1975 cells): ≤ 0.1 µM
apoptotic activity ([5]; Caspase, DNA Fragmentation, Annexin-V): increased apoptotic activity
HLM % Remaining@ 30 Min [3]: 100%

Oc1c(C(Nc2cc(Cl)c(Cl)cn2)c2cc(Cl)ccc2Cl)ccc2cccnc12 (centres unmarked) [AD4-13179]
IC50 (H1975 cells): 0.14 µM
IC50 (HT-29 cells; [9]): 4.1 µM
IC50 (A549 cells; [8]): 0.14 µM
induction of apoptosis in A549 cells (DNA fragmentation assay) [5]: induce apoptosis

Oc1c(C(Nc2ncc(F)cc2F)c2cc(Cl)cc(Cl)c2Cl)ccc2cccnc12 (centres unmarked) [AD4-13181]
IC50 (H1975 cells): 0.58 µM
Emax at 8 µM [4]: 43%
Emax at 16 µM [4]: 47%
Ability to Synergize with Tarceva [4]: ++ (0.7-0.85 Moderate synergism)
IC50 (A549 cells; [8]): 0.12 µM

Cc1c(Cl)cnc(NC(c2ccc(Cl)cc2Cl)c2ccc3cccnc3c2O)c1F (centres unmarked) [AD4-13199]
MLM % Remaining@ 30 Min [1]: 63%
IC50 (H1975 cells): 0.16 µM
IC50 (HT-29 cells; [9]): 0.75 µM
IC50 (A549 cells; [8]): 0.12 µM
activation at 1 µM [5]: 130%
activation at 10 µM [5]: 492%
Emax at 1 µM [5]: 15%
Emax at 10 µM [5]: 55%
HLM % Remaining@ 30 Min [3]: 100%

CCc1cc(Cl)cnc1NC(c1cccc(Cl)c1Cl)c1ccc2cccnc2c1O (centres unmarked) [AD4-13215]
IC50 (HT-29 cells; [9]): 0.97 µM
Emax at 8 µM [4]: 20%
Emax at 16 µM [4]: 27%
Ability to Synergize with Tarceva [4]: ++ (0.7-0.85 Moderate synergism)
IC50 (A549 cells; [8]): 0.16 µM

Cc1nc(NC(c2cc(Cl)ccc2Cl)c2ccc3cccnc3c2O)c(Cl)cc1Cl (centres unmarked) [AD4-13220]
IC50 (HT-29 cells; [9]): 3.3 µM
Emax at 8 µM [4]: 32%
Emax at 16 µM [4]: 40%
Ability to Synergize with Tarceva [4]: + (0.85-0.9 Slight synergism)
IC50 (A549 cells; [8]): 0.12 µM

CCc1cc(Cl)cnc1NC(c1ccc(Cl)cc1)c1ccc2cccnc2c1O (centres unmarked) [AD4-13225]
activation at 1 µM [5]: 702%
activation at 10 µM [5]: 697%
Emax at 1 µM [5]: 52%
Emax at 10 µM [5]: 52%

C#Cc1cccc(Nc2ncnc3cc(OCCOC)c(OCCOC)cc23)c1 [Tarceva, reference compound]
HT-29 Cell Proliferation Assay Results (IC50) (HT-29 cells): No Effect
IC50 (HT-29 cells; HT-29, 72 h, read-out: IC50, Comparison of Incubation Times in HT-29 Cell Proliferation Assay): 15 µM
IC50 (HT-29 cells; HT-29, read-out: IC50 from dose-response curves of FIG. 11, HT-29 cells): 12 µM
synergy with Tykerb [2]: did not produce synergistic effects
